# Test results published in US20240166693A1, “METHODS AND COMPOUNDS FOR MODULATING MYOTONIC DYSTROPY 1” (Design Therapeutics, Inc., priority 2020, published 2024).
# Tested on: Myotonic Dystrophy 1 affected patient fibroblasts (Coriell GM04602; 1600 CTG repeats)
# Assay: DM1 foci reduction assay (CAG10-Cy3 FISH, average foci per nucleus)
# Assay type: cell-based
# Conditions: Homo sapiens, Fibroblast, 48 h, read-out: Foci Reduction in Fibroblast EC50, 48 h (nM)
# Method in brief: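 DM1 patient fibroblasts (GM04602, 1600 CTG) treated 48 h at 37 °C, 8-point 1:3 dilutions from 3 μM top dose; wild-type GM07492 as control. PFA-fixed, ethanol-permeabilized cells hybridized overnight with 5 nM CAG10-Cy3 probe, DAPI-counterstained, imaged at 20× in 4 fields; average foci per nucleus per well.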
row,SMILES,EC50 [nM]
1,CCN(CC)CCCC[C@H](NC(=O)OC(C)(C)C)C(=O)N[C@@H](CO)C(=O)NCCOCCOCCOCCOCCOCCNC(=O)CCNC(=O)c1nc(NC(=O)c2cc(NC(=O)CCNC(=O)c3nc(NC(=O)CCCNC(=O)c4cc(NC(=O)c5nc(NC(=O)CCNC(=O)c6cc(NC(=O)c7nccn7C)cn6C)cn5C)cn4C)cn3C)cn2C)cn1C [Compound 157],100 to 500
2,CCN(CC)CCCC[C@H](NC(=O)[C@H](CC(C)C)NC(=O)[C@H](C)NC(=O)[C@H](Cc1ccccc1)NC(=O)c1ccc(C(C)(C)C)cc1)C(=O)N[C@@H](CO)C(=O)Nc1ccc(OCCOCCOCCOCCOCCNC(=O)CCNC(=O)c2nc(NC(=O)c3cc(NC(=O)CCNC(=O)c4nc(NC(=O)CCCNC(=O)c5cc(NC(=O)c6nc(NC(=O)CCNC(=O)c7cc(NC(=O)c8nccn8C)cn7C)cn6C)cn5C)cn4C)cn3C)cn2C)cc1 [Compound 177],< 100
3,CCN(CC)CCCC[C@H](NC(=O)[C@H](CC(C)C)NC(=O)[C@H](C)NC(=O)[C@H](Cc1ccccc1)NC(=O)c1ccc(C(C)(C)C)cc1)C(=O)N[C@@H](CO)C(=O)Nc1ccc(OCCOCCOCCNC(=O)CCNC(=O)c2nc(NC(=O)c3cc(NC(=O)CCNC(=O)c4nc(NC(=O)CCCNC(=O)c5cc(NC(=O)c6nc(NC(=O)CCNC(=O)c7cc(NC(=O)c8nccn8C)cn7C)cn6C)cn5C)cn4C)cn3C)cn2C)cc1 [Compound 178],< 100
4,CCN(CC)CCCC[C@H](NC(=O)[C@H](CC(C)C)NC(=O)[C@H](C)NC(=O)[C@H](Cc1ccccc1)NC(=O)c1ccc(C(C)(C)C)cc1)C(=O)N[C@@H](CO)C(=O)N1CCC(C#CC#CC2CCN(CCOCCOCCOCCNC(=O)CCNC(=O)c3nc(NC(=O)c4cc(NC(=O)CCNC(=O)c5nc(NC(=O)CCCNC(=O)c6cc(NC(=O)c7nc(NC(=O)CCNC(=O)c8cc(NC(=O)c9nccn9C)cn8C)cn7C)cn6C)cn5C)cn4C)cn3C)CC2)CC1 [Compound 180],< 100
5,CCN(CC)CCCC[C@H](NC(=O)[C@H](CC(C)C)NC(=O)[C@H](C)NC(=O)[C@H](Cc1ccccc1)NC(=O)c1ccc(C(C)(C)C)cc1)C(=O)N[C@@H](CO)C(=O)N1CCC(C#CC#CC2CCN(CCOCCNC(=O)CCNC(=O)c3nc(NC(=O)c4cc(NC(=O)CCNC(=O)c5nc(NC(=O)CCCNC(=O)c6cc(NC(=O)c7nc(NC(=O)CCNC(=O)c8cc(NC(=O)c9nccn9C)cn8C)cn7C)cn6C)cn5C)cn4C)cn3C)CC2)CC1 [Compound 181],< 100
6,CCN(CC)CCCC[C@H](NC(=O)[C@H](CC(C)C)NC(=O)[C@H](C)NC(=O)[C@H](Cc1ccccc1)NC(=O)c1ccc(C(C)(C)C)cc1)C(=O)N[C@@H](CO)C(=O)N1CCC(N2CCN(CCOCCOCCOCCOCCNC(=O)CCNC(=O)c3nc(NC(=O)c4cc(NC(=O)CCNC(=O)c5nc(NC(=O)CCCNC(=O)c6cc(NC(=O)c7nc(NC(=O)CCNC(=O)c8cc(NC(=O)c9nccn9C)cn8C)cn7C)cn6C)cn5C)cn4C)cn3C)CC2)CC1 [Compound 184],> 500
7,CCN(CC)CCCC[C@H](NC(=O)[C@H](CC(C)C)NC(=O)[C@H](C)NC(=O)[C@H](Cc1ccccc1)NC(=O)c1ccc(C(C)(C)C)cc1)C(=O)N[C@@H](CO)C(=O)N1CCN(CCOCCOCCOCCOCCNC(=O)CCNC(=O)c2nc(NC(=O)c3cc(NC(=O)CCNC(=O)c4nc(NC(=O)CCCNC(=O)c5cc(NC(=O)c6nc(NC(=O)CCNC(=O)c7cc(NC(=O)c8nccn8C)cn7C)cn6C)cn5C)cn4C)cn3C)cn2C)CC1 [Compound 185],100 to 500
8,CCN(CC)CCCC[C@H](NC(=O)[C@H](CC(C)C)NC(=O)[C@H](C)NC(=O)[C@H](Cc1ccccc1)NC(=O)c1ccc(C(C)(C)C)cc1)C(=O)N[C@@H](CO)C(=O)NCCOCCOCCOCCOCCN1CCN(C2CCN(C(=O)CCNC(=O)c3nc(NC(=O)c4cc(NC(=O)CCNC(=O)c5nc(NC(=O)CCCNC(=O)c6cc(NC(=O)c7nc(NC(=O)CCNC(=O)c8cc(NC(=O)c9nccn9C)cn8C)cn7C)cn6C)cn5C)cn4C)cn3C)CC2)CC1 [Compound 186],> 500
9,CCN(CC)CCCC[C@H](NC(=O)[C@H](CC(C)C)NC(=O)[C@H](C)NC(=O)[C@H](Cc1ccccc1)NC(=O)c1ccc(C(C)(C)C)cc1)C(=O)N[C@@H](CO)C(=O)NCCOCCOCCOCCOCCN1CCN(C(=O)CCNC(=O)c2nc(NC(=O)c3cc(NC(=O)CCNC(=O)c4nc(NC(=O)CCCNC(=O)c5cc(NC(=O)c6nc(NC(=O)CCNC(=O)c7cc(NC(=O)c8nccn8C)cn7C)cn6C)cn5C)cn4C)cn3C)cn2C)CC1 [Compound 187],100 to 500

# Same assay, conditions: Homo sapiens, Fibroblast; DM1 fibroblasts, 48 h treatment, 8-point dose response, 3 μM top dose; read-out: Foci Reduction in Fibroblast EC50, 48 h
row,SMILES,EC50 [nM]
1,CCN(CC)CCCCCC(=O)NCC(=O)NCCOCCOCCOCCOCCOCCNC(=O)CCNC(=O)c1nc(NC(=O)c2cc(NC(=O)CCNC(=O)c3nc(NC(=O)CCCNC(=O)c4cc(NC(=O)c5nc(NC(=O)CCNC(=O)c6cc(NC(=O)c7nccn7C)cn6C)cn5C)cn4C)cn3C)cn2C)cn1C [Compound 158],> 500
2,COc1c(OCCOCCOCCOCCOCCOCCNC(=O)CCNC(=O)c2nc(NC(=O)c3cc(NC(=O)CCNC(=O)c4nc(NC(=O)CCCNC(=O)c5cc(NC(=O)c6nc(NC(=O)CCNC(=O)c7cc(NC(=O)c8nccn8C)cn7C)cn6C)cn5C)cn4C)cn3C)cn2C)cccc1C(=O)N1CCN(C(=O)COc2cccc(OCCNC(=O)CNC(=O)c3ccc(C(C)(C)C)cc3)c2)CC1 [Compound 159],100 to 500
3,CCN(CCN(C)CCOCCOCCOCCOCCOCCNC(=O)CCNC(=O)c1nc(NC(=O)c2cc(NC(=O)CCNC(=O)c3nc(NC(=O)CCCNC(=O)c4cc(NC(=O)c5nc(NC(=O)CCNC(=O)c6cc(NC(=O)c7nccn7C)cn6C)cn5C)cn4C)cn3C)cn2C)cn1C)C(=O)CNCc1cc(C(N)=O)ccn1 [Compound 163],> 500
4,CCN(c1cc(-c2ccc(CN3CCN(CCCCCCCNC(=O)CCNC(=O)c4nc(NC(=O)c5cc(NC(=O)CCNC(=O)c6nc(NC(=O)CCCNC(=O)c7cc(NC(=O)c8nc(NC(=O)CCNC(=O)c9cc(NC(=O)c%10nccn%10C)cn9C)cn8C)cn7C)cn6C)cn5C)cn4C)CC3)cc2)cc(C(=O)NCc2c(C)cc(C)[nH]c2=O)c1C)C1CCOCC1 [Compound 164],> 500
5,CCN(c1cc(-c2ccc(CN3CCN(CCOCCOCCNC(=O)CCNC(=O)c4nc(NC(=O)c5cc(NC(=O)CCNC(=O)c6nc(NC(=O)CCCNC(=O)c7cc(NC(=O)c8nc(NC(=O)CCNC(=O)c9cc(NC(=O)c%10nccn%10C)cn9C)cn8C)cn7C)cn6C)cn5C)cn4C)CC3)cc2)cc(C(=O)NCc2c(C)cc(C)[nH]c2=O)c1C)C1CCOCC1 [Compound 165],> 500
6,CCN(c1cc(-c2ccc(CN3CCN(CCOCCOCCOCCOCCOCCNC(=O)CCNC(=O)c4nc(NC(=O)c5cc(NC(=O)CCNC(=O)c6nc(NC(=O)CCCNC(=O)c7cc(NC(=O)c8nc(NC(=O)CCNC(=O)c9cc(NC(=O)c%10nccn%10C)cn9C)cn8C)cn7C)cn6C)cn5C)cn4C)CC3)cc2)cc(C(=O)NCc2c(C)cc(C)[nH]c2=O)c1C)C1CCOCC1 [Compound 166],> 500
7,CCN(c1cc(-c2ccc(CN3CCN(CCOCCOCCOCCOCCOCCOCCOCCOCCOCCOCCNC(=O)CCNC(=O)c4nc(NC(=O)c5cc(NC(=O)CCNC(=O)c6nc(NC(=O)CCCNC(=O)c7cc(NC(=O)c8nc(NC(=O)CCNC(=O)c9cc(NC(=O)c%10nccn%10C)cn9C)cn8C)cn7C)cn6C)cn5C)cn4C)CC3)cc2)cc(C(=O)NCc2c(C)cc(C)[nH]c2=O)c1C)C1CCOCC1 [Compound 167],> 500
8,CC(=O)c1cc(-c2ccccc2S(C)(=O)=O)c2cc(OCCOCCOCCNC(=O)CCNC(=O)c3nc(NC(=O)c4cc(NC(=O)CCNC(=O)c5nc(NC(=O)CCCNC(=O)c6cc(NC(=O)c7nc(NC(=O)CCNC(=O)c8cc(NC(=O)c9nccn9C)cn8C)cn7C)cn6C)cn5C)cn4C)cn3C)ccn12 [Compound 168],> 500
9,CC(=O)c1cc(-c2ccccc2S(C)(=O)=O)c2cc(OCCOCCOCCOCCOCCOCCNC(=O)CCNC(=O)c3nc(NC(=O)c4cc(NC(=O)CCNC(=O)c5nc(NC(=O)CCCNC(=O)c6cc(NC(=O)c7nc(NC(=O)CCNC(=O)c8cc(NC(=O)c9nccn9C)cn8C)cn7C)cn6C)cn5C)cn4C)cn3C)ccn12 [Compound 169],> 500
10,CC(=O)c1cc(-c2ccccc2S(C)(=O)=O)c2cc(OCCOCCOCCOCCOCCOCCOCCOCCOCCOCCOCCNC(=O)CCNC(=O)c3nc(NC(=O)c4cc(NC(=O)CCNC(=O)c5nc(NC(=O)CCCNC(=O)c6cc(NC(=O)c7nc(NC(=O)CCNC(=O)c8cc(NC(=O)c9nccn9C)cn8C)cn7C)cn6C)cn5C)cn4C)cn3C)ccn12 [Compound 170],> 500
11,Cn1cc(CCn2c(CNCCOCCOCCNC(=O)CCNC(=O)c3nc(NC(=O)c4cc(NC(=O)CCNC(=O)c5nc(NC(=O)CCCNC(=O)c6cc(NC(=O)c7nc(NC(=O)CCNC(=O)c8cc(NC(=O)c9nccn9C)cn8C)cn7C)cn6C)cn5C)cn4C)cn3C)nc(-c3cnn(C)c3)c2-c2ccc(C#N)cc2)cn1 [Compound 171],> 500
12,Cn1cc(CCn2c(CNCCOCCOCCOCCOCCOCCNC(=O)CCNC(=O)c3nc(NC(=O)c4cc(NC(=O)CCNC(=O)c5nc(NC(=O)CCCNC(=O)c6cc(NC(=O)c7nc(NC(=O)CCNC(=O)c8cc(NC(=O)c9nccn9C)cn8C)cn7C)cn6C)cn5C)cn4C)cn3C)nc(-c3cnn(C)c3)c2-c2ccc(C#N)cc2)cn1 [Compound 172],> 500
13,CN(C)[C@@H]1CN(C2CCc3cccc(F)c32)C[C@H]1c1ccc(N2CCN(C(=O)COCCOCCOCCOCCOCCNC(=O)CCNC(=O)c3nc(NC(=O)c4cc(NC(=O)CCNC(=O)c5nc(NC(=O)CCCNC(=O)c6cc(NC(=O)c7nc(NC(=O)CCNC(=O)c8cc(NC(=O)c9nccn9C)cn8C)cn7C)cn6C)cn5C)cn4C)cn3C)CC2)cc1 (some centres unmarked) [Compound 174],> 500
14,CN(C)[C@@H]1CN(C2CCc3cccc(F)c32)C[C@H]1c1ccc(N2CCN(S(=O)(=O)CCOCCOCCOCCOCCOCCNC(=O)CCNC(=O)c3nc(NC(=O)c4cc(NC(=O)CCNC(=O)c5nc(NC(=O)CCCNC(=O)c6cc(NC(=O)c7nc(NC(=O)CCNC(=O)c8cc(NC(=O)c9nccn9C)cn8C)cn7C)cn6C)cn5C)cn4C)cn3C)CC2)cc1 (some centres unmarked) [Compound 175],100 to 500
